From the supplement of paper PMC6965134
± gives the standard deviation of the averaged measurements. Each block holds one compound with its values, some of them ahead of it.

Assay: TIMS collisional cross section (CCS, N2) of the lipid ion; higher = larger ion cross section
Conditions: ionization mode: negative, one isomer drawn
Protocol: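 Lipid extracts of human plasma (NIST SRM 1950), mouse liver or HeLa cells were separated by nanoflow C18 LC (30 min gradient) and analysed by TIMS-PASEF on a timsTOF Pro. Ion mobility was calibrated with the Agilent tuning mix (negative mode ions) and converted to collisional cross sections (Mason–Schamp, N2).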

[1] = sample type: Mouse Liver, ion (formula + adduct): [C46H82NO8P+HCOO] 1-
[2] = sample type: Mouse Liver, ion (formula + adduct): [C45H82NO8P+HCOO] 1-
[3] = sample type: Mouse Liver, ion (formula + adduct): [C47H82NO8P+HCOO] 1-
[4] = sample type: Human plasma, ion (formula + adduct): [C46H84NO8P+HCOO] 1-
[5] = sample type: Human plasma, ion (formula + adduct): [C46H82NO8P+HCOO] 1-
[6] = sample type: Mouse Liver, ion (formula + adduct): [C46H86NO8P+HCOO] 1-
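Note: lipids from MTBE extraction, five replicate injections per sample, 100 ms TIMS ramp spanning 0.6–1.95 Vs/cm², lipid identity assigned from PASEF MS/MS spectra.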

Structure (SMILES): CC/C=C\C/C=C\C/C=C\C/C=C\C/C=C\CCCC(=O)O[C@H](COC(=O)CCCCCCCCCCCCCCC)COP(=O)([O-])OCC[N+](C)(C)C [PC 16:0_20:5]
TIMS collisional cross section (sample type: Human plasma, ion (formula + adduct): [C44H78NO8P+HCOO] 1-): 292.7 Å²
TIMS collisional cross section (sample type: Mouse Liver, ion (formula + adduct): [C44H78NO8P-CH3] 1-): 275.6 Å²

Structure (SMILES): CCCCC/C=C\C/C=C\C/C=C\C/C=C\C/C=C\CCC(=O)O[C@H](COC(=O)CCCCCCCCCCCCCCC)COP(=O)([O-])OCC[N+](C)(C)C [PC 16:0_22:5]
TIMS collisional cross section [1]: 298.9 Å²

Structure (SMILES): CC/C=C\C/C=C\C/C=C\C/C=C\C/C=C\C/C=C\CCC(=O)O[C@H](COC(=O)CCCCCCCCCCCCCCC)COP(=O)([O-])OCC[N+](C)(C)C [PC 16:0_22:6]
TIMS collisional cross section (sample type: Human plasma, ion (formula + adduct): [C46H80NO8P+HCOO] 1-): 297.8 Å²
TIMS collisional cross section (sample type: Mouse Liver, ion (formula + adduct): [C46H80NO8P+HCOO] 1-): 297.75 ± 0.78 Å²

Structure (SMILES): CCCCC/C=C\C/C=C\CCCCCCCC(=O)O[C@H](COC(=O)CCCCCCC/C=C\CCCCCC)COP(=O)([O-])OCC[N+](C)(C)C [PC 16:1@_18:2]
TIMS collisional cross section (sample type: Mouse Liver, ion (formula + adduct): [C42H78NO8P-H] 1-): 273.3 Å²

Structure (SMILES): CCCCC/C=C\C/C=C\C/C=C\C/C=C\CCCCCC(=O)O[C@H](COC(=O)CCCCCCC/C=C\CCCCCC)COP(=O)([O-])OCC[N+](C)(C)C [PC 16:1@_22:4]
TIMS collisional cross section [1]: 297.7 Å²

Structure (SMILES): CCCCC/C=C\C/C=C\C/C=C\C/C=C\C/C=C\CCC(=O)O[C@H](COC(=O)CCCCCCC/C=C\CCCCCC)COP(=O)([O-])OCC[N+](C)(C)C [PC 16:1@_22:5]
TIMS collisional cross section (sample type: Mouse Liver, ion (formula + adduct): [C46H80NO8P-CH3] 1-): 280.1 Å²

Structure (SMILES): CCCCCC/C=C\CCCCCCCC(=O)OC[C@H](COP(=O)([O-])OCC[N+](C)(C)C)OC(=O)CCCCCCCCCCCCC/C=C\CCCCCCCC [PC 16:1@_24:1]
TIMS collisional cross section (sample type: Mouse Liver, ion (formula + adduct): [C48H92NO8P-CH3] 1-): 290.9 Å²

Structure (SMILES): CCCCC/C=C\C/C=C\CCCCCCCC(=O)O[C@H](COC(=O)CCCCCCC/C=C\CCCCCC)COP(=O)([O-])OCC[N+](C)(C)C [PC 16:1_18:2]
TIMS collisional cross section (sample type: Mouse Liver, ion (formula + adduct): [C42H78NO8P+HCOO] 1-): 288.8 Å²
TIMS collisional cross section (sample type: Mouse Liver, ion (formula + adduct): [C42H78NO8P-CH3] 1-): 270.5 Å²

Structure (SMILES): CCCCC/C=C\C/C=C\C/C=C\CCCCCCC(=O)O[C@H](COC(=O)CCCCCCC/C=C\CCCCCC)COP(=O)([O-])OCC[N+](C)(C)C [PC 16:1_20:3]
TIMS collisional cross section (sample type: Mouse Liver, ion (formula + adduct): [C44H80NO8P-CH3] 1-): 276.2 Å²

Structure (SMILES): CC/C=C\C/C=C\C/C=C\C/C=C\C/C=C\CCCC(=O)O[C@H](COC(=O)CCCCCCC/C=C\CCCCCC)COP(=O)([O-])OCC[N+](C)(C)C [PC 16:1_20:5]
TIMS collisional cross section (sample type: Human plasma, ion (formula + adduct): [C44H76NO8P+HCOO] 1-): 290.4 Å²
TIMS collisional cross section (sample type: Mouse Liver, ion (formula + adduct): [C44H76NO8P+HCOO] 1-): 290.4 Å²

Structure (SMILES): CC/C=C\C/C=C\C/C=C\C/C=C\C/C=C\C/C=C\CCC(=O)O[C@H](COC(=O)CCCCCCC/C=C\CCCCCC)COP(=O)([O-])OCC[N+](C)(C)C [PC 16:1_22:6]
TIMS collisional cross section (sample type: Human plasma, ion (formula + adduct): [C46H78NO8P+HCOO] 1-): 295.4 Å²

Structure (SMILES): CCCCCCCCCCCCCCCCC(=O)OC[C@H](COP(=O)([O-])OCC[N+](C)(C)C)OC(C)=O [PC 17:0@_2:0]
TIMS collisional cross section (sample type: Human plasma, ion (formula + adduct): [C27H54NO8P-H] 1-): 239 ± 3 Å²

Structure (SMILES): CCCCCCCC/C=C\CCCCCCCC(=O)O[C@H](COC(=O)CCCCCCCCCCCCCCCC)COP(=O)([O-])OCC[N+](C)(C)C [PC 17:0@_18:1]
TIMS collisional cross section (sample type: Mouse Liver, ion (formula + adduct): [C43H84NO8P+HCOO] 1-): 294.5 Å²

Structure (SMILES): CCCCC/C=C\C/C=C\C/C=C\C/C=C\CCCC(=O)O[C@H](COC(=O)CCCCCCCCCCCCCCCC)COP(=O)([O-])OCC[N+](C)(C)C [PC 17:0@_20:4]
TIMS collisional cross section [2]: 296.7 Å²

Structure (SMILES): CCCCC/C=C\C/C=C\C/C=C\C/C=C\CCCC(=O)O[C@H](COC(=O)CCCCCCCCCCCCCCCCC)COP(=O)([O-])OCC[N+](C)(C)C [PC 18:0@_20:4]
TIMS collisional cross section [4]: 297.2 Å²

Structure (SMILES): CCCCC/C=C\C/C=C\C/C=C\C/C=C\CCCC(=O)O[C@H](COC(=O)CCCCCCCCCCCCCCCCC)COP(=O)([O-])OCC[N+](C)(C)C [PC 18:0_20:4]
TIMS collisional cross section [4]: 299.5 Å²
TIMS collisional cross section (sample type: Mouse Liver, ion (formula + adduct): [C46H84NO8P+HCOO] 1-): 299.5 ± 0.85 Å²
TIMS collisional cross section (sample type: Mouse Liver, ion (formula + adduct): [C46H84NO8P-CH3] 1-): 282.4 Å²

Next, values leading:

TIMS collisional cross section (sample type: Human plasma, ion (formula + adduct): [C47H82NO8P+HCOO] 1-): 301.2 Å²
TIMS collisional cross section [3]: 301.2 Å²
Structure (SMILES): CC/C=C\C/C=C\C/C=C\C/C=C\C/C=C\C/C=C\CCC(=O)O[C@H](COC(=O)CCCCCCCCCCCCCCCC)COP(=O)([O-])OCC[N+](C)(C)C [PC 17:0@_22:6]

TIMS collisional cross section (sample type: Human plasma, ion (formula + adduct): [C43H84NO8P+HCOO] 1-): 294.5 Å²
Structure (SMILES): CCCCCCCC/C=C\CCCCCCCC(=O)O[C@H](COC(=O)CCCCCCCCCCCCCCCC)COP(=O)([O-])OCC[N+](C)(C)C [PC 17:0_18:1]

TIMS collisional cross section (sample type: Mouse Liver, ion (formula + adduct): [C43H82NO8P+HCOO] 1-): 293.3 Å²
Structure (SMILES): CCCCC/C=C\C/C=C\CCCCCCCC(=O)O[C@H](COC(=O)CCCCCCCCCCCCCCCC)COP(=O)([O-])OCC[N+](C)(C)C [PC 17:0_18:2]

TIMS collisional cross section [2]: 297.2 Å²
Structure (SMILES): CCCCC/C=C\C/C=C\C/C=C\C/C=C\CCCC(=O)O[C@H](COC(=O)CCCCCCCCCCCCCCCC)COP(=O)([O-])OCC[N+](C)(C)C [PC 17:0_20:4]

TIMS collisional cross section [3]: 300.6 Å²
Structure (SMILES): CC/C=C\C/C=C\C/C=C\C/C=C\C/C=C\C/C=C\CCC(=O)O[C@H](COC(=O)CCCCCCCCCCCCCCCC)COP(=O)([O-])OCC[N+](C)(C)C [PC 17:0_22:6]

TIMS collisional cross section (sample type: Mouse Liver, ion (formula + adduct): [C29H56NO8P+OAcO] 1-): 258.4 Å²
Structure (SMILES): C=CC(=O)O[C@H](COC(=O)CCCCCCCCCCCCCCCCC)COP(=O)([O-])OCC[N+](C)(C)C [PC 18:0@_3:1]

TIMS collisional cross section [5]: 301.2 Å²
Structure (SMILES): CC/C=C\C/C=C\C/C=C\C/C=C\C/C=C\CCCC(=O)O[C@H](COC(=O)CCCCCCCCCCCCCCCCC)COP(=O)([O-])OCC[N+](C)(C)C [PC 18:0@_20:5]

TIMS collisional cross section (sample type: Human plasma, ion (formula + adduct): [C48H84NO8P+HCOO] 1-): 303.4 Å²
Structure (SMILES): CC/C=C\C/C=C\C/C=C\C/C=C\C/C=C\C/C=C\CCC(=O)O[C@H](COC(=O)CCCCCCCCCCCCCCCCC)COP(=O)([O-])OCC[N+](C)(C)C [PC 18:0@_22:6]

TIMS collisional cross section (sample type: Mouse Liver, ion (formula + adduct): [C29H56NO8P+AcO] 1-): 260.8 Å²
TIMS collisional cross section (sample type: Mouse Liver, ion (formula + adduct): [C29H56NO8P+HCOO] 1-): 243.4 Å²
Structure (SMILES): C=CC(=O)O[C@H](COC(=O)CCCCCCCCCCCCCCCCC)COP(=O)([O-])OCC[N+](C)(C)C [PC 18:0_3:1@]

TIMS collisional cross section (sample type: Human plasma, ion (formula + adduct): [C29H56NO8P+AcO] 1-): 252.1 Å²
Structure (SMILES): C=CC(=O)O[C@H](COC(=O)CCCCCCCCCCCCCCCCC)COP(=O)([O-])OCC[N+](C)(C)C [PC 18:0_3:1]

TIMS collisional cross section (sample type: Mouse Liver, ion (formula + adduct): [C44H88NO8P+HCOO] 1-): 298.4 Å²
Structure (SMILES): CCCCCCCCCCCCCCCCCC(=O)OC[C@H](COP(=O)([O-])OCC[N+](C)(C)C)OC(=O)CCCCCCCCCCCCCCCCC [PC 18:0_18:0]

TIMS collisional cross section (sample type: Human plasma, ion (formula + adduct): [C44H84NO8P+HCOO] 1-): 296.5 ± 0.35 Å²
TIMS collisional cross section (sample type: Mouse Liver, ion (formula + adduct): [C44H84NO8P+HCOO] 1-): 295.9 ± 0.17 Å²
Structure (SMILES): CCCCC/C=C\C=C/CCCCCCCCC(=O)O[C@H](COC(=O)CCCCCCCCCCCCCCCCC)COP(=O)([O-])OCC[N+](C)(C)C [PC 18:0_18:2]

TIMS collisional cross section (sample type: Mouse Liver, ion (formula + adduct): [C46H90NO8P+HCOO] 1-): 302.3 Å²
Structure (SMILES): CCCCCCCC/C=C\CCCCCCCCCC(=O)O[C@H](COC(=O)CCCCCCCCCCCCCCCCC)COP(=O)([O-])OCC[N+](C)(C)C [PC 18:0_20:1]

TIMS collisional cross section [6]: 300.6 Å²
Structure (SMILES): CCCCC/C=C\C/C=C\CCCC/C=C\CCCC(=O)O[C@H](COC(=O)CCCCCCCCCCCCCCCCC)COP(=O)([O-])OCC[N+](C)(C)C [PC 18:0_20:3@]

TIMS collisional cross section (sample type: Human plasma, ion (formula + adduct): [C46H86NO8P+HCOO] 1-): 300.6 Å²
TIMS collisional cross section [6]: 300 Å²
Structure (SMILES): CCCCC/C=C\C/C=C\CCCC/C=C\CCCC(=O)O[C@H](COC(=O)CCCCCCCCCCCCCCCCC)COP(=O)([O-])OCC[N+](C)(C)C [PC 18:0_20:3]

TIMS collisional cross section [5]: 299.5 Å²
Structure (SMILES): CC/C=C\C/C=C\C/C=C\C/C=C\C/C=C\CCCC(=O)O[C@H](COC(=O)CCCCCCCCCCCCCCCCC)COP(=O)([O-])OCC[N+](C)(C)C [PC 18:0_20:5]
